Source: PubChem BioAssay (NCI)
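Cultured in 96-well plates, cells were exposed to test compound for 48 hours across five concentrations. Abbreviation: GI50, concentration required for 50% inhibition of growth. The concentration for full growth arrest is given as TGI.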

Tests used:
Assay in all cases: inhibition of tumour cell growth, NCI panel, 48 h
A498 renal = test system: A498 renal
CCRF-CEM leukemia = test system: CCRF-CEM leukemia
HCT-116 colon = test system: HCT-116 colon
HCT-15 colon = test system: HCT-15 colon
HL-60(TB) leukemia = test system: HL-60(TB) leukemia
NCI-H23 lung = test system: NCI-H23 lung
OVCAR-3 ovarian = test system: OVCAR-3 ovarian
SF-539 CNS = test system: SF-539 CNS
UO-31 renal = test system: UO-31 renal

Row | SMILES | GI50 (A498 renal) | TGI (A498 renal) | GI50 (CCRF-CEM leukemia) | TGI (CCRF-CEM leukemia) | GI50 (HCT-116 colon) | TGI (HCT-116 colon) | GI50 (HCT-15 colon) | TGI (HCT-15 colon) | GI50 (HL-60(TB) leukemia) | TGI (HL-60(TB) leukemia) | GI50 (NCI-H23 lung) | TGI (NCI-H23 lung) | GI50 (OVCAR-3 ovarian) | TGI (OVCAR-3 ovarian) | GI50 (SF-539 CNS) | TGI (SF-539 CNS) | GI50 (UO-31 renal) | TGI (UO-31 renal)
1 | NS(=O)(=O)c1ccc(CCN=C=S)cc1 | 2.21 µM | 7.99 µM | 2.65 µM | 7.45 µM | 1.75 µM | 3.45 µM | 1.3 µM | 3.37 µM | 3.32 µM | 11.2 µM | 2.62 µM | 7.54 µM | 1.7 µM | 3.13 µM | 1.87 µM | 3.85 µM | 1.53 µM | 2.87 µM
2 | COc1cc(-c2cc(-c3nc4ccc(Cl)cc4[nH]3)[nH]n2)cc(OC)c1OC | 2.1 µM | 11 µM | 2.48 µM | 7.56 µM | 3.45 µM | 12.2 µM | 2.9 µM | 13.2 µM | 2.49 µM | 7.47 µM | 2.73 µM | 8.89 µM | 3.5 µM | 12.1 µM | 4.66 µM | 18.3 µM | 2.64 µM | 11.2 µM
3 | COc1ccccc1CNCCCN1C(=O)c2ccc3c4c(ccc(c24)C1=O)C(=O)N(CCCNCCCN)C3=O | 0.342 µM | 2.15 µM | 0.185 µM | 4.13 µM | 0.136 µM | 3.04 µM | 0.886 µM | 3.76 µM | 0.744 µM | 2.78 µM | 0.31 µM | 2.55 µM | 0.324 µM | 1.42 µM | 0.968 µM | 2.82 µM | 0.744 µM | 3.08 µM
4 | COC(=O)CCC/C=C\C[C@H]1C=CC(=O)/C1=C/C[C@@H](O)C/C=C\CC(F)(F)F | 2.47 µM | 4.57 µM | 0.345 µM | 5.27 µM | 1.26 µM | 2.75 µM | 1.07 µM | 3.29 µM | 1.93 µM | 7.79 µM | 1.9 µM | 4.16 µM | 1.31 µM | 3.49 µM | 3.24 µM | 9.09 µM | 1.7 µM | 3.36 µM
5 | COc1cc(-n2cc(-c3ccc(Cl)cc3)[nH]c2=O)cc(OC)c1OC | 19.8 µM | 44.8 µM |  |  | 35.4 µM | > 100 µM | > 100 µM | > 100 µM | > 100 µM | > 100 µM | 49.5 µM | > 100 µM | 21 µM | 50.1 µM | 23.8 µM | 49.2 µM | 22.5 µM | 64.4 µM
6 | N#Cc1ccnc(N2C(=O)CC[C@H]2C(=O)N(c2cncc(F)c2)[C@H](C(=O)NC2CC(F)(F)C2)c2ccccc2Cl)c1 | 81.7 µM | > 100 µM | > 100 µM | > 100 µM | 29.9 µM | > 100 µM | 88.6 µM | > 100 µM | > 100 µM | > 100 µM | > 100 µM | > 100 µM | 63.9 µM | > 100 µM | > 100 µM | > 100 µM | 18.3 µM | > 100 µM
7 | C[C@H]1[C@H](C)CC[C@]2(C(=O)O)CC[C@]3(C)C(=CC[C@@H]4[C@@]5(C)C/C(=C/c6ccco6)C(=O)C(C)(C)[C@@H]5CC[C@]43C)[C@H]12 | 11.5 µM | 33.8 µM | 3.52 µM | 16.8 µM | 3.1 µM | 11.7 µM | 2.95 µM | 12.1 µM | 2.44 µM | 7.04 µM | 3.85 µM | 16.3 µM | 3.44 µM | 11.9 µM | 4.67 µM | 16.8 µM | 2.94 µM | 13.1 µM
